Series [1] concerns ADX mice. As to the kind of experiment: Hair cycle progression of ADX mice treated topically with R428. The note with it: R428 2 mM in ethanol, topical once a day, back skin of ADX mice. Format: in vivo. The procedure: (§1) C57BL/6J mice were anesthetized. Small incisions were made on the back skin right on top of each adrenal gland. Both adrenal glands were removed with a pair of curved forceps. Sham-operated mice (Sham) underwent the same procedures as the ADX mice, except their adrenal glands were not removed.
RU486 (TCI America, Cat #M1732; 4% in ethanol) was used to induce K15-CrePGR by topical application for 10-14 days. To induce Pdgfra-CreER and Sox2-CreER, tamoxifen (Millipore Sigma, T5648; 20 mg/kg) was injected into mice intraperitoneally once per day for 4 to 6 days. To inhibit AXL activity, R428 (APExBIO, A8329; 2 mM in ethanol) was applied to ADX mice topically once a day. EdU (Lumiprobe Corporation, Cat #10540; 25 mg/kg) were administered by intraperitoneal injections. AAVs were produced as described previously^46 and injected directly into dermis through intradermal injections. 2-month-old C57BL/6J mice were injected with AAV-GFP or AAV-Gas6 (1×10^11 genome copy number per animal).
The hair cycle progression was documented by standardized photographs at the start of each experiment and weekly thereafter. Anagen was determined by darkening of the skin followed by hair growth as previously described^75. The back skin of mice was shaved with an electric clipper to reveal skin colour changes and hair coat recovery. […] Telogen length was quantified as described previously^19.

The test system of another series is FACS-purified HFSCs. Briefly: Colony formation assay of cultured HFSCs. Format: cell-based, mouse. The procedure: For the isolation of HFSCs, mouse dorsal skin was dissected, and the fat layer was removed using a surgical scalpel. The skin was incubated in trypsin-EDTA at 37° C. for 35-45 min on an orbital shaker. Single-cell suspension was obtained by scraping the epidermal side and filtering. Cells were centrifuged for 8 min at 350 g at 4° C., resuspended in 5% fetal bovine serum, and stained for 30-40 min. The following antibodies were used: CD49f (Integrin alpha 6)-PE (eBioscience, 12-0495-82; 1:500); CD34-eFlour660 (eBioscience, 50-0341-82; 1:100); Sca-1-PerCP-Cy5.5 (eBioscience, 45-5981-82; 1:1000); and CD45-eFlour450 (eBioscience, 48-0451-82; 1:250). The HFSCs were isolated as CD45^−, Integrin alpha 6^+, CD34^+, Sca-1^− cells.
FACS-purified HFSCs were plated on mitomycin C (P212121, Cat #M92010)-treated J2 fibroblast feeders at a density of 10,000 cells/well of 12-well plates, in E media supplemented with 15% (v/v) serum and 0.3 mM calcium as described in previous studies^78,79. For Gas6-treatment, E medium was supplemented with recombinant mouse Gas6 protein (R&D systems, Cat #8310-GS) at 500 ng/ml. For R428-treatment experiments, E medium was supplemented with R428 (APExBIO, Cat #A8329) at 1 μM. Cells were fixed and stained with 1% (wt/vol) Rhodamine B (Millipore Sigma, R6626). Colony diameter was measured from scanned images of plates using Image J.

A further series deals with C57BL/6 mice. As to the kind of experiment: Hair cycle progression of C57BL/6 mice under chronic corticosterone feeding. Format: in vivo. The note with it: wild-type mice, supplemental corticosterone in drinking water from second telogen; vehicle mice entered anagen around P90-P100.
The test system of another series is hair follicle. The note with it: corticosterone feeding mice.
For series [2], the system named is ADX mice. Briefly: Hair cycle progression of ADX mice fed corticosterone in drinking water. Format: in vivo. The settings on record: 35 μg/ml corticosterone in drinking water. How it is done:
as §1
The hair cycle progression was documented by standardized photographs at the start of each experiment and weekly thereafter. Anagen was determined by darkening of the skin followed by hair growth as previously described^75. The back skin of mice was shaved with an electric clipper to reveal skin colour changes and hair coat recovery. Once the hair coat recovery reached ˜90% of the back skin, the mice were shaved again to monitor the entry into next anagen. Telogen length was quantified as described previously^19.
Control animals received the vehicle water.

Series [3] in a line: Plasma corticosterone levels by ELISA after corticosterone feeding. Format: in vivo, mice.
Protocol: 35 μg/ml Corticosterone (Millipore Sigma, C2505) was dissolved in vehicle (0.45% hydroxypropyl-β-cyclodextrine in drinking water) in drinking water during the entire corticosterone feeding period. Corticosterone water was changed every 3 days to prevent degradation. Control animals received the vehicle water. Blood corticosterone levels were measured by ELISA (ARBOR assays, [MUT]-H1) according to the manufacturer's instruction. Serum was collected using the heparinized tubes (Microvette® CB 300 LH or Microvette® 300 LH, Sarstedt) between 10 a.m. and 12 p.m.

Entries after “also recorded” stand apart in the source; their conditions may differ.

Protocol for C57BL/6 mice: The hair cycle progression was documented by standardized photographs at the start of each experiment and weekly thereafter. Anagen was determined by darkening of the skin followed by hair growth as previously described^75. The back skin of mice was shaved with an electric clipper to reveal skin colour changes and hair coat recovery. Once the hair coat recovery reached ˜90% of the back skin, the mice were shaved again to monitor the entry into next anagen. Telogen length was quantified as described previously^19. 35 μg/ml Corticosterone (Millipore Sigma, C2505) was dissolved in vehicle (0.45% hydroxypropyl-β-cyclodextrine in drinking water) in drinking water during the entire corticosterone feeding period. Corticosterone water was changed every 3 days to prevent degradation. Control animals received the vehicle water.
Protocol for hair follicle: 35 μg/ml Corticosterone (Millipore Sigma, C2505) was dissolved in vehicle (0.45% hydroxypropyl-β-cyclodextrine in drinking water) in drinking water during the entire corticosterone feeding period. Corticosterone water was changed every 3 days to prevent degradation. Control animals received the vehicle water.
The skin samples were fixed in 4% paraformaldehyde (PFA, Electron Microscopy Sciences, Cat #15713) for 15 min at room temperature, washed in phosphate buffered saline (PBS), immersed in 30% sucrose solution overnight at 4° C., and embedded in optimal cutting temperature compound (Sakura Finetek, Cat #4583). 35 μm thick sections were fixed in 4% PFA. The fixed slides were then blocked in blocking buffer (5% Donkey serum, 1% bovine serum albumin, 2% cold-water fish gelatin in 0.3% Triton X-100 in PBS) for 1 h at room temperature, incubated with primary antibodies overnight at 4° C., and incubated with secondary antibodies for 2-4 h at room temperature. The following antibodies and dilutions were used: CD34 (eBioscience, 14-0341-85, 1:100), P-Cadherin (R&D Systems, AF761, 1:400), GFP (Abcam, ab290, 1:5000) and Cleaved Caspase-3 (Cell Signaling Technology, 1:300). DAPI was used as a counterstain for the nucleus.

For the molecule `Nc1nc(Nc2ccc3c(c2)CC[C@@H](N2CCCC2)CC3)nn1-c1cc2c(nn1)-c1ccccc1CCC2` [R428], the “anagen entry / hair growth (hair cycle progression)” value in the series on ADX mice [1] was “suppressed their precocious anagen entry; also recorded: repress the phenotypes of ADX; also recorded: inhibit hair growth”. Further, the HFSC colony formation result in the series on FACS-purified HFSCs (R428 at 1 μM in E medium) is “inhibited HFSC colony formation”.

`C[C@]12C[C@H](O)[C@H]3[C@@H](CCC4=CC(=O)CC[C@@]43C)[C@@H]1CC[C@@H]2C(=O)CO` [corticosterone]: the “anagen entry (hair cycle progression)” value with C57BL/6 mice is recorded as “stayed in telogen”. In addition, in the series with hair follicle, the “abnormal cell death in hair follicle (aCAS3)” value is listed as “does not display abnormal cell death”. Moreover, the “HFSC activation / quiescence (hair cycle progression)” value with ADX mice [2] is “effectively suppressed the aberrant activation of HFSCs; also recorded: suppress the loss of HFSC quiescence of ADX mice”. In addition, the plasma corticosterone levels entry in series [3] (ADX mice, corticosterone in drinking water) is on record as “restored”. Besides, the “corticosterone levels in the circulation” value in series [3] (wild-type mice, supplemental corticosterone in drinking water) was “enhanced corticosterone levels in the circulation”.

B1: Gas6: recombinant mouse Gas6 protein (R&D systems, Cat #8310-GS); gamma-carboxyglutamic acid-containing secreted protein, AXL ligand (protein, UniProt Q61592 28-674, looked up)
Growth arrest-specific …: VLLRAREAAQFLRPRQRRAYQVFEEAKQGHLERECVEEVCSKEEAREVFENDPETEYFYPRYQECMRKYGRPEEKNPDFAKCVQNLPDQCTPNPCDKKGTHICQDLMGNFFCVCTDGWGGRLCDKDVNECVQKNGGCSQVCHNKPGSFQCACHSGFSLASDGQTCQDIDECTDSDTCGDARCKNLPGSYSCLCDEGYTYSSKEKTCQDVDECQQDRCEQTCVNSPGSYTCHCDGRGGLKLSPDMDTCEDILPCVPFSMAKSVKSLYLGRMFSGTPVIRLRFKRLQPTRLLAEFDFRTFDPEGVLFFAGGRSDSTWIVLGLRAGRLELQLRYNGVGRITSSGPTINHGMWQTISVEELERNLVIKVNKDAVMKIAVAGELFQLERGLYHLNLTVGGIPFKESELVQPINPRLDGCMRSWNWLNGEDSAIQETVKANTKMQCFSVTERGSFFPGNGFATYRLNYTRTSLDVGTETTWEVKVVARIRPATDTGVLLALVGDDDVVPISVALVDYHSTKKLKKQLVVLAVEDVALALMEIKVCDSQEHTVTVSLREGEATLEVDGTKGQSEVSTAQLQERLDTLKTHLQGSVHTYVGGLPEVSVISAPVTAFYRGCMTLEVNGKILDLDTASYKHSDITSHSCPPVEHATP
On to B1, for which, in the series on FACS-purified HFSCs (recombinant mouse Gas6 protein at 500 ng/ml in E medium), the HFSC colony formation result is “formed more colonies”.

For the origin of these results see US20220387552A1, “METHODS OF MODULATING HAIR FOLLICLE STEM CELL QUIESCENCE BY MODULATING DERMAL NICHE ACTIVATOR GAS6” (President and Fellows of Harvard College, priority 2019, published 2022).
